Measured values: patent US20210221832A1, “SUBSTITUTED PYRIDOINDOLES FOR THE TREATMENT AND PROPHYLAXIS OF BACTERIAL INFECTION” (Hoffmann-La Roche Inc., priority 2018, published 2021)
≈ marks a conversion by molar mass, not a printed value.

Experiments:
[1] = Lyophilisation Solubility Assay (LYSA); type: physicochemical; conditions: aqueous buffer, thermodynamic from solid; 0.05 M phosphate buffer, pH 6.5
Experimental: The solubility of compounds of present invention was assessed by LYSA assay. Samples were prepared in duplicate from 10 mM DMSO stock solutions (20 μL) diluted in 30 μL pure DMSO. After evaporation of DMSO with a centrifugal vacuum evaporator, the residue was dissolved in 0.05 M phosphate buffer (150 μL, pH 6.5), which was stirred for one hour and shook for two hours. After one night, the solution was filtered using a microtiter filter plate. Then the filtrate and its 1/10 dilution were analyzed by HPLC-UV. In addition, a four-point calibration curve was prepared from the 10 mM stock solutions and used for the solubility determination of the compounds.

[2] = Plasma stability assay in human plasma; type: in vitro ADME; conditions: 10 μM prodrug, 37° C., prodrug remaining at 30 min compared to 0 min
Experimental: (§1) The degradation of prodrug and formation of active drug of present invention were monitored by current plasma stability assay. The assay is conducted in human plasma (purchased from Bioreclamation, Lot No. BRH1380385) or mouse plasma (prepared in-house using CD-1 mouse purchased from Vital River). Plasma is spiked with the test prodrug (10 μM final concentration) dissolved in DMSO (or water) and incubated at 37° C. Aliquots are removed at 0, 5, 15 and 30 minutes of incubation time, quenched with appropriate volume of internal standard solution (I.S., 0.2 μM of tolbutamide, prepared in ACN and water (1:1, v/v)), according to the mass spectrometer intensity of both analytes. Samples are centrifuged, the supernatant are removed and analyzed by LC-MS/MS. The degradation of prodrug was illustrated by calculation of percent remaining of prodrug at 30 min compared to that at 0 min (Table 2).

[3] = Plasma stability assay in mouse plasma; type: in vitro ADME, CD-1 mouse; conditions: 10 μM prodrug, 37° C., prodrug remaining at 30 min compared to 0 min
Experimental: as §1

| Structure (SMILES) | solubility [1] [µg/mL] | Percent Remaining (%) H [2] [%] | Percent Remaining (%) M [3] [%] |
| --- | --- | --- | --- |
| CN1C[C@@H]2CCN(c3c(-c4cnc5c(c4)c(=O)c(C(=O)O)cn5C)cnc4[nH]c5c(N(C)C(=O)OCOP(=O)(O)O)cc(F)c(C#N)c5c34)[C@@H]2C1 [Example 1.01, 6-[5-Cyano-6-fluoro-8-[methyl(phosphonooxymethoxycarbonyl)amino]-4-[(3aS,6aS)-5-methyl-2,3,3a,4,6,6a-hexahydropyrrolo[2,3-c]pyrrol-1-yl]-9H-pyrido[2,3-b]indol-3-yl]-1-methyl-4-oxo-1,8-naphthyridine-3-carboxylic acid] | > 595 | – | – |
| CN1C[C@@H]2CCN(c3c(-c4cnc5c(c4)c(=O)c(C(=O)O)cn5C)cnc4[nH]c5c(N(C)C=O)cc(F)c(C#N)c5c34)[C@@H]2C1 [Example 1.03, 6-[5-Cyano-6-fluoro-8-[formyl(methyl)amino]-4-[(3aS,6aS)-5-methyl-2,3,3a,4,6,6a-hexahydropyrrolo[2,3-c]pyrrol-1-yl]-9H-pyrido[2,3-b]indol-3-yl]-1-methyl-4-oxo-1,8-naphthyridine-3-carboxylic acid] | > 730 | – | – |
| CNc1cc(F)c(C#N)c2c1[nH]c1ncc(-c3cnc4c(c3)c(=O)c(C(=O)O)cn4C)c(N3CC[C@H]4C[N+](C)(COP(=O)(O)O)C[C@H]43)c12 (stereo partly drawn) [Example 1.07, 6-[5-Cyano-6-fluoro-8-(methylamino)-4-[(3aS,6aS)-5-methyl-5-(phosphonooxymethyl)-2,3,3a,4,6,6a-hexahydropyrrolo[2,3-c]pyrrol-5-ium-1-yl]-9H-pyrido[2,3-b]indol-3-yl]-1-methyl-4-oxo-1,8-naphthyridine-3-carboxylic acid] | > 1060 | – | – |
| CNc1cc(F)c(C#N)c2c1[nH]c1ncc(-c3cnc4c(c3)c(=O)c(C(=O)OCc3oc(=O)oc3C)cn4C)c(N3CC[C@H]4CN(C)C[C@H]43)c12 [Example 1.13, (5-Methyl-2-oxo-1,3-dioxol-4-yl)methyl 6-[5-cyano-6-fluoro-8-(methylamino)-4-[(3aS,6aS)-5-methyl-2,3,3a,4,6,6a-hexahydropyrrolo[2,3-c]pyrrol-1-yl]-9H-pyrido[2,3-b]indol-3-yl]-1-methyl-4-oxo-1,8-naphthyridine-3-carboxylate] | – | 1.9 | 0.6 |
| CC(=O)OC(C)OC(=O)N(C)c1cc(F)c(C#N)c2c1[nH]c1ncc(-c3cnc4c(c3)c(=O)c(C(=O)O)cn4C)c(N3CC[C@H]4CN(C)C[C@H]43)c12 (stereo partly drawn) [Example 1.15, 6-[8-[1-Acetoxyethoxycarbonyl(methyl)amino]-5-cyano-6-fluoro-4-[(3aS,6aS)-5-methyl-2,3,3a,4,6,6a-hexahydropyrrolo[2,3-c]pyrrol-1-yl]-9H-pyrido[2,3-b]indol-3-yl]-1-methyl-4-oxo-1,8-naphthyridine-3-carboxylic acid] | – | 50.5 | 4.7 |
| CN1C[C@H]2CCN(c3c(-c4cnc5c(c4)c(=O)c(C(=O)O)cn5C)cnc4[nH]c5c(N(C)C(=O)OCOP(=O)(O)O)cc(F)c(F)c5c34)[C@H]2C1 [Example 1.18, 6-[5,6-Difluoro-8-[methyl(phosphonooxymethoxycarbonyl)amino]-4-[(3aR,6aR)-5-methyl-2,3,3a,4,6,6a-hexahydropyrrolo[2,3-c]pyrrol-1-yl]-9H-pyrido[2,3-b]indol-3-yl]-1-methyl-4-oxo-1,8-naphthyridine-3-carboxylic acid] | – | 67.2 | 72.0 |
| CN1C[C@@H]2CCN(c3c(-c4cnc5c(c4)c(=O)c(C(=O)O)cn5C)cnc4[nH]c5c(N(C)C=O)cc(F)c(F)c5c34)[C@@H]2C1 [Example 1.26, 6-[5,6-Difluoro-8-[formyl(methyl)amino]-4-[(3aS,6aS)-5-methyl-2,3,3a,4,6,6a-hexahydropyrrolo[2,3-c]pyrrol-1-yl]-9H-pyrido[2,3-b]indol-3-yl]-1-methyl-4-oxo-1,8-naphthyridine-3-carboxylic acid] | > 783 | – | – |
| CN1C[C@@H]2CCN(c3c(-c4cnc5c(c4)c(=O)c(C(=O)O)cn5C)cnc4[nH]c5c(N(C)S(=O)(=O)O)cc(F)c(F)c5c34)[C@@H]2C1 [Example 1.27, 6-[5,6-Difluoro-8-[methyl(sulfo)amino]-4-[(3aS,6aS)-5-methyl-2,3,3a,4,6,6a-hexahydropyrrolo[2,3-c]pyrrol-1-yl]-9H-pyrido[2,3-b]indol-3-yl]-1-methyl-4-oxo-1,8-naphthyridine-3-carboxylic acid] | > 685 | – | – |
| CN1C[C@@H]2CCN(c3c(-c4cnc5c(c4)c(=O)c(C(=O)O)cn5C)cnc4[nH]c5c(N(C)C(=O)OCOC(=O)/C=C/C(=O)O)cc(F)c(F)c5c34)[C@@H]2C1 [Example 1.28, 6-[5,6-Difluoro-8-[methyl-[[(E)-3-carboxyprop-2-enoyl]oxymethoxycarbonyl]amino]-4-[(3aS,6aS)-5-methyl-2,3,3a,4,6,6a-hexahydropyrrolo[2,3-c]pyrrol-1-yl]-9H-pyrido[2,3-b]indol-3-yl]-1-methyl-4-oxo-1,8-naphthyridine-3-carboxylic acid] | > 945 | – | – |
| CN1C[C@@H]2CCN(c3c(-c4ccc5ccc(C(=O)O)c(=O)n5c4)cnc4[nH]c5c(N(C)C(=O)OCOP(=O)(O)O)cc(F)c(F)c5c34)[C@@H]2C1 [Example 1.32, 7-[5,6-Difluoro-8-[methyl(phosphonooxymethoxycarbonyl)amino]-4-[(3aS,6aS)-5-methyl-2,3,3a,4,6,6a-hexahydropyrrolo[2,3-c]pyrrol-1-yl]-9H-pyrido[2,3-b]indol-3-yl]-4-oxo-quinolizine-3-carboxylic acid] | > 875 | – | – |
| CN1C[C@@H]2CCN(c3c(-c4ccc5ccc(C(=O)O)c(=O)n5c4)cnc4[nH]c5c(N(C)C(=O)OCOC(=O)/C=C/C(=O)O)cc(F)c(F)c5c34)[C@@H]2C1 [Example 1.33, 7-[5,6-Difluoro-8-[methyl-[[(E)-3-carboxyprop-2-enoyl]oxymethoxycarbonyl]amino]-4-[(3aS,6aS)-5-methyl-2,3,3a,4,6,6a-hexahydropyrrolo[2,3-c]pyrrol-1-yl]-9H-pyrido[2,3-b]indol-3-yl]-4-oxo-quinolizine-3-carboxylic acid] | 680 (≈ 949 µM) | – | – |
| CN1C[C@@H]2CCN(c3c(-c4ccc5ccc(C(=O)O)c(=O)n5c4)cnc4[nH]c5c(N(C)C(=O)CNC(=O)CNC(=O)CN)cc(F)c(F)c5c34)[C@@H]2C1 [Example 1.34, 7-[8-[[2-[[2-[(2-Aminoacetyl)amino]acetyl]amino]acetyl]-methyl-amino]-5,6-difluoro-4-[(3aS,6aS)-5-methyl-2,3,3a,4,6,6a-hexahydropyrrolo[2,3-c]pyrrol-1-yl]-9H-pyrido[2,3-b]indol-3-yl]-4-oxo-quinolizine-3-carboxylic acid] | > 930 | – | – |
| CN1C[C@@H]2CCN(c3c(-c4ccc5ccc(C(=O)O)c(=O)n5c4)cnc4[nH]c5c(N(C)C(=O)CNC(=O)CN)cc(F)c(F)c5c34)[C@@H]2C1 [Example 1.35, 7-[8-[[2-[(2-Aminoacetyl)amino]acetyl]-methyl-amino]-5,6-difluoro-4-[(3aS,6aS)-5-methyl-2,3,3a,4,6,6a-hexahydropyrrolo[2,3-c]pyrrol-1-yl]-9H-pyrido[2,3-b]indol-3-yl]-4-oxo-quinolizine-3-carboxylic acid] | > 915 | – | – |
| CNc1cc(F)c(F)c2c3c(N4CC[C@H]5CN(C)C[C@H]54)c(-c4ccc5ccc(C(=O)O)c(=O)n5c4)cn(COP(=O)(O)O)c-3nc12 [Example 1.36, 7-[5,6-Difluoro-8-(methylamino)-1-(phosphonooxymethyl)-4-[(3aS,6aS)-5-methyl-2,3,3a,4,6,6a-hexahydropyrrolo[2,3-c]pyrrol-1-yl]pyrido[2,3-b]indol-3-yl]-4-oxo-quinolizine-3-carboxylic acid] | > 1000 | – | – |
| CNc1cc(F)c(F)c2c1[nH]c1ncc(-c3ccc4ccc(C(=O)OCCOC(=O)[C@@H](N)C(C)C)c(=O)n4c3)c(N3CC[C@H]4CN(C)C[C@H]43)c12 [Example 1.37, 2-[(2S)-2-Amino-3-methyl-butanoyl]oxyethyl 7-[5,6-difluoro-8-(methylamino)-4-[(3aS,6aS)-5-methyl-2,3,3a,4,6,6a-hexahydropyrrolo[2,3-c]pyrrol-1-yl]-9H-pyrido[2,3-b]indol-3-yl]-4-oxo-quinolizine-3-carboxylate] | 315 (≈ 458 µM) | – | – |
| CN1C[C@@H]2CCN(c3c(-c4cnc5c(c4)c(=O)c(C(=O)O)cn5C)cnc4[nH]c5c(N(C)C(=O)OCOP(=O)(O)O)cc(F)c(F)c5c34)[C@@H]2C1 [Example 1.43, 6-[5,6-Difluoro-8-[methyl(phosphonooxymethoxycarbonyl)amino]-4-[(3aS,6aS)-5-methyl-2,3,3a,4,6,6a-hexahydropyrrolo[2,3-c]pyrrol-1-yl]-9H-pyrido[2,3-b]indol-3-yl]-1-methyl-4-oxo-1,8-naphthyridine-3-carboxylic acid] | 595 (≈ 834 µM) | – | – |
